Measured values: PubChem BioAssay AID1963846 (Molecular Pharmacology Branch, DTP, NCI, 2024)
“And” between values parts separate entries of the source, which are not always exact repeats. Equal entries are not always repeated.

Tested on: 454973-116-R2-J3-PDC complex spheroid viability
Assay: Anticancer human tumor 454973-116-R2-J3-PDC patient-derived pancreatic carcinoma cell line growth inhibition [POLQ]
Conditions: for viability, T/C: stronger effect = lower value
Method: Multicellular complex tumor spheroid response to Polymerase (POL) inhibitors (novobiocin, ART-558, RP6685) in combination with a variety of drugs and investigational agents in selected tumor cell lines
The POL inhibitors (novobiocin, ART-558, and RP6685) were evaluated both individually and in combination with standard of care and investigational anticancer small molecules within a complex spheroid model of solid tumors. . Complex spheroids include a stromal component modeled by human endothelial cells (HUVEC) and fibroblasts modeled by human mesenchymal stem cells (MSCs). The concentration ranges selected for each drug and investigational agent were based upon clinically achievable concentrations if the clinical Cmax of the agent was known.
Compounds. The drugs and investigational agents: novobiocin (NSC847541), ART-558 (NSC835418), RP-6685 (NSC848927), peposertib (NSC802822), ceralasertib (NSC780249), elimusertib (NSC800525), camonsertib (NSC841442), AZD-1390 (NSC803789), olaparib (NSC753686), talazoparib (NSC767125), rucaparib (NSC756644), sotorasib (NSC818433), MRTX-1133 (NSC836407), SN-38 (NSC673596), topotecan (NSC609699), epotoside (NSC141540), doxorubicin (NSC123127), gemcitabine (NSC613327), 5-fluorouracil (NSC19893), paclitaxel (NSC125973), vemurafenib (NSC761431), MSA-2 (NSC828583), SN-011 (NSC837082), adavosertib (NSC754352), prexasertib (NSC758257), carboplatin (NSC241240) and oxaliplatin (NSC266046), were obtained from the National Cancer Institute (NCI) Developmental Therapeutics Program Chemical Repository (21). The FDA-approved anticancer drug set is available from the Developmental Therapeutics Program at https://dtp.cancer.gov/organization/dscb/obtaining/. […] The stock solutions were prepared in dimethyl sulfoxide (DMSO, Sigma-Aldrich, St. Louis, MO, cat. D2650), except for the platinum compounds which were prepared in saline (Quality Biological, Gaithersburg, MD, cat. 114-055-101), at 800-fold the tested concentration and stored at -70 degrees C prior to their use. All drugs and investigational agents were tested over a range starting from a high concentration at or near the clinical Cmax and decreasing in half-log increments. If the clinical Cmax for an agent had not been determined, the highest concentration tested was 10 microM, except for SN-38, which was tested at a high concentration of 1 microM.
Cell Culture. All cells were maintained in an incubator at 37 degrees C and 5% CO2 with 95% humidity. The PDC lines were cultured according to standard operating procedures established by the NCI PDMR (https://pdmr.cancer.gov). Table 3 of the manuscript, lists the cell lines along with the number of the three cell types plated to form the mct-spheroids and media for tumor cell growth. After thawing, all PDC lines, except 997537-175-T-J1-PDC and 415267-285-R-J2-PDC, were cultured in Matrigel-coated flasks prepared with a working solution of 1X Ham's F-12 nutrient mix, without supplementation (Thermo Fisher Scientific, cat. 11765054), 100 U/mL penicillin-streptomycin (Thermo Fisher Scientific, cat. 15140122), and 2.5% Matrigel (Corning Inc., Corning, NY, cat. 354248) for the first three passages. The two PDC lines 997537-175-T-J1-PDC and 415267-285-R-J2-PDC were cultured on uncoated flasks. The 857933-349-R-J2-PDC line was cultured in 6C/Colon 1B media containing advanced DMEM/F-12 (Thermo Fisher Scientific, cat. 12634028), 10 mM HEPES (Thermo Fisher Scientific, cat. 15630080), 1X GlutaMAX supplement (Thermo Fisher Scientific, cat. 35050061), 0.1 mg/mL primocin (InvivoGen, San Diego, CA, cat. ant-pm-2), 10% defined fetal bovine serum, heat inactivated (HyClone Laboratories Inc., Logan, UT, cat. SH30070.03HI), 50% L-WRN conditioned media (ATCC, cat. CRL-3276), 1.25 mM N-Acetyl-L-cysteine (Sigma-Aldrich, cat. A9165), 10 mM nicotinamide (Sigma-Aldrich, cat. N0636), 1X B-27 supplement (Thermo Fisher Scientific, cat. 17504044), 1X N-2 supplement (Thermo Fisher Scientific, cat. […]
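Further: spheroids exposed to drugs for seven days before measurement.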
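Wherever viability, T/C is given: percent viability relative to DMSO vehicle control wells taken as 100%.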

`COC1C(OC(N)=O)C(O)C(Oc2ccc3c(O)c(NC(=O)c4ccc(O)c(CC=C(C)C)c4)c(=O)oc3c2C)OC1(C)C` (stereo not given) was tested, and the viability, T/C (compound 0.0316 µM) was 106% [middle of 13 runs], the viability, T/C (compound 0.1 µM) was 111% [middle of 13 runs] and the viability, T/C (compound 0.316 µM) was 105% [middle of 13 runs]. The viability, T/C (compound 1 µM) was 102% [middle of 13 runs], the viability, T/C (compound 3.16 µM) was 102% [middle of 13 runs] and the viability, T/C (compound 10 µM) was 109% [middle of 13 runs]. The IC50 (compound alone, run of 10/31/2023) was > 10000 nM.
For `Nc1ccn(C2OC(CO)C(O)C2(F)F)c(=O)n1` (stereo not given), the viability, T/C (compound 0.0316 µM) was 12.9% and 5.69% and 16.6%, the viability, T/C (compound 0.1 µM) was 14.2% and 8.25% and 9.25% and the viability, T/C (compound 0.316 µM) was 11.2% and 8.63% and 12.6%. For the same compound, the viability, T/C (compound 1 µM) was 14.3% and 7.78% and 11.7%, the viability, T/C (compound 3.16 µM) was 12% and 9.22% and 12.5% and the viability, T/C (compound 10 µM) was 11.3% and 5.91% and 10.8%. For the same compound, the IC50 (curve of compound) was < 31.6 nM.
`COc1cccc2c1C(=O)c1c(O)c3c(c(O)c1C2=O)CC(O)(C(=O)CO)CC3OC1CC(N)C(O)C(C)O1` (stereo not given) + COC1C(OC(N)=O)C(O)C(Oc2ccc3c(O)c(NC(=O)c4ccc(O)c(CC=C(C)C)c4)c(=O)oc3c2C)OC1(C)C showed an IC50 (curve of first compound, second compound 0.0316 µM) of 56.2 nM, an IC50 (curve of first compound, second compound 0.1 µM) of 57.3 nM and an IC50 (curve of first compound, second compound 0.316 µM) of 64.8 nM. For the same compound, the IC50 (curve of first compound, second compound 1 µM) was 63.6 nM, the IC50 (curve of first compound, second compound 3.16 µM) was 66.4 nM and the IC50 (curve of first compound, second compound 10 µM) was 61.8 nM. The viability, T/C (second compound 0.0316 µM, first compound 0.0316 µM) was 71%, the viability, T/C (second compound 0.0316 µM, first compound 0.1 µM) was 23.6% and the viability, T/C (second compound 0.0316 µM, first compound 0.316 µM) was 21.3%. For the same compound, the viability, T/C (second compound 0.0316 µM, first compound 1 µM) was 8.86%, the viability, T/C (second compound 0.0316 µM, first compound 3.16 µM) was 0.64% and the viability, T/C (second compound 0.0316 µM, first compound 10 µM) was 0.19%. The viability, T/C (second compound 0.1 µM, first compound 0.0316 µM) was 69.5%, the viability, T/C (second compound 0.1 µM, first compound 0.1 µM) was 27.6% and the viability, T/C (second compound 0.1 µM, first compound 0.316 µM) was 22.3%. For the same compound, the viability, T/C (second compound 0.1 µM, first compound 1 µM) was 8.87%, the viability, T/C (second compound 0.1 µM, first compound 3.16 µM) was 0.52% and the viability, T/C (second compound 0.1 µM, first compound 10 µM) was 0.98%. For the same compound, the viability, T/C (second compound 0.316 µM, first compound 0.0316 µM) was 74.3%, the viability, T/C (second compound 0.316 µM, first compound 0.1 µM) was 29.4% and the viability, T/C (second compound 0.316 µM, first compound 0.316 µM) was 25.5%. For the same compound, the viability, T/C (second compound 0.316 µM, first compound 1 µM) was 8.79%, the viability, T/C (second compound 0.316 µM, first compound 3.16 µM) was 0.27% and the viability, T/C (second compound 0.316 µM, first compound 10 µM) was 0.29%. It also gave a viability, T/C (second compound 1 µM, first compound 0.0316 µM) of 78.3%, a viability, T/C (second compound 1 µM, first compound 0.1 µM) of 26% and a viability, T/C (second compound 1 µM, first compound 0.316 µM) of 23.6%. The viability, T/C (second compound 1 µM, first compound 1 µM) was 11.8%, the viability, T/C (second compound 1 µM, first compound 3.16 µM) was 3.28% and the viability, T/C (second compound 1 µM, first compound 10 µM) was 2.08%. It also gave a viability, T/C (second compound 3.16 µM, first compound 0.0316 µM) of 76.4%, a viability, T/C (second compound 3.16 µM, first compound 0.1 µM) of 30.7% and a viability, T/C (second compound 3.16 µM, first compound 0.316 µM) of 22.9%. It also gave a viability, T/C (second compound 3.16 µM, first compound 1 µM) of 9.68%, a viability, T/C (second compound 3.16 µM, first compound 3.16 µM) of 0.46% and a viability, T/C (second compound 3.16 µM, first compound 10 µM) of 0.39%. For the same compound, the viability, T/C (second compound 10 µM, first compound 0.0316 µM) was 76%, the viability, T/C (second compound 10 µM, first compound 0.1 µM) was 24.7% and the viability, T/C (second compound 10 µM, first compound 0.316 µM) was 24.8%. It also gave a viability, T/C (second compound 10 µM, first compound 1 µM) of 10%, a viability, T/C (second compound 10 µM, first compound 3.16 µM) of 1.62% and a viability, T/C (second compound 10 µM, first compound 10 µM) of 0.41%.
`O=c1[nH]cc(F)c(=O)[nH]1` was tested, and the viability, T/C (compound 0.0316 µM) was 107% and 104% and 112%, the viability, T/C (compound 0.1 µM) was 103% and 102% and 99.7% and the viability, T/C (compound 0.316 µM) was 101% and 92.2% and 104%. The viability, T/C (compound 1 µM) was 99.9% and 71.4% and 92.9%, the viability, T/C (compound 3.16 µM) was 50.8% and 29.6% and 53.3% and the viability, T/C (compound 10 µM) was 32.6% and 40.2% and 36.8%. The IC50 (curve of compound) was 3340 nM and 1960 nM and 4010 nM.
In the case of `CC(C)n1c(=O)n(C)c2cnc3cc(F)c(-c4ccc(OCCCN5CCCCC5)nc4)cc3c21`, the viability, T/C (compound 0.0316 µM) is reported as 106% and 110% and 109%, the viability, T/C (compound 0.1 µM) is reported as 96.6% and 98.5% and 110% and the viability, T/C (compound 0.316 µM) is reported as 107% and 110% and 113%. The viability, T/C (compound 1 µM) was 109% and 97.5% and 118%, the viability, T/C (compound 3.16 µM) was 98% and 97.2% and 102% and the viability, T/C (compound 10 µM) was 81.2% and 84% and 89.7%. The IC50 (curve of compound) was > 10000 nM.
